Like-named read-outs stand apart in the source and are kept apart here.
Tests used:
[1] = target: T1, DYRK1A (Homo sapiens, UniProt Q13627); assay: SF3B1 Thr434 phosphorylation in HeLa cells (immunoblot); assay type: cell-based; details: HeLa cells expressing GFP-SF3B1-NT, 18 h
T1 construct: purchased ProQinase (Freiburg, Germany)
Protocol: Fig 4 Inhibition of SF3B1 phosphorylation by DYRK1A in HeLa cells. HeLa cells expressing GFP-SF3B1-NT were treated with the indicated compounds for 18 h. The phosphorylation state of SF3B1 was determined by immunoblotting with pT434 antibody, and the results were normalized to the total amount of SF3B1 immunoreactivity. A, Representative western blots. […] The vertical line indicates where irrelevant lanes were deleted from the final image. B, The column diagram summarizes the quantitative evaluation of 3–6 experiments for each compound (means + SD).
(500 ng/well) using FuGENE HD (Promega, Mannheim, Germany).

[2] = target: IRAK1 (Homo sapiens, UniProt P51617); parameters: purchased ProQinase (Freiburg, Germany); details: 10 μM; cited from earlier work
[3] = target: T2, CLK3 (Homo sapiens, UniProt P49761); details: cited from earlier work
T2 construct: purchased ProQinase (Freiburg, Germany)

[4] = target: T3, DYRK2 (Homo sapiens, UniProt Q92630); details: cited from earlier work
T3 construct: purchased ProQinase (Freiburg, Germany)
T3 sequence (Q92630 1-601): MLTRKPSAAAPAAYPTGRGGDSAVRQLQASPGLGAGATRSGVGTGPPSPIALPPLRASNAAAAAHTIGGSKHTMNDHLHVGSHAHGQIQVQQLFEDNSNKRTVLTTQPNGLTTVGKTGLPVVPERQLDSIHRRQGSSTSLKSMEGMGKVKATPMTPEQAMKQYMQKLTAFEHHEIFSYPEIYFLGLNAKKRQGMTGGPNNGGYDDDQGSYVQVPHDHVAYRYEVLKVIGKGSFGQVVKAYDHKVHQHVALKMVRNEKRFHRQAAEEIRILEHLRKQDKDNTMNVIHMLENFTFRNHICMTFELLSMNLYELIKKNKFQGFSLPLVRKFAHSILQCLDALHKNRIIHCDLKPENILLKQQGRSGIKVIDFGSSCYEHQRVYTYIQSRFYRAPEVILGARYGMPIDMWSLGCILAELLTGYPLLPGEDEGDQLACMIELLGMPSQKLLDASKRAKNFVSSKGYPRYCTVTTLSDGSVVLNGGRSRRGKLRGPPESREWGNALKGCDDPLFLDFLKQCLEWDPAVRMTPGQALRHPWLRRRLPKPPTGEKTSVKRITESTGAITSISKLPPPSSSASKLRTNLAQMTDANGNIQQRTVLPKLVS

[5] = target: T4, DYRK1B (Homo sapiens, UniProt Q9Y463); parameters: purchased ProQinase (Freiburg, Germany); details: cited from earlier work
[6] = target: PIM1 (Homo sapiens, UniProt P11309); parameters: purchased ProQinase (Freiburg, Germany); details: cited from earlier work
Sequence of PIM1 (P11309 whole entry): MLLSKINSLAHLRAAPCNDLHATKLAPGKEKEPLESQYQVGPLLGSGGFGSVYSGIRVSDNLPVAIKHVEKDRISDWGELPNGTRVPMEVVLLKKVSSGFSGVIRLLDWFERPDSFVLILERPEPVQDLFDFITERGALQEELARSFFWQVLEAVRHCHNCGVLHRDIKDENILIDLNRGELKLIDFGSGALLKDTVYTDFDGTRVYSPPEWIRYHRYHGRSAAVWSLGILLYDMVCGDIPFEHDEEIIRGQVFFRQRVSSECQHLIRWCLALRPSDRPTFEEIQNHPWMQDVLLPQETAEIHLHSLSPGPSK

[7] = target: T5, CLK1 (Homo sapiens, UniProt P49759); parameters: purchased ProQinase (Freiburg, Germany); details: cited from earlier work
Target sequence in this assay (P49759 whole entry): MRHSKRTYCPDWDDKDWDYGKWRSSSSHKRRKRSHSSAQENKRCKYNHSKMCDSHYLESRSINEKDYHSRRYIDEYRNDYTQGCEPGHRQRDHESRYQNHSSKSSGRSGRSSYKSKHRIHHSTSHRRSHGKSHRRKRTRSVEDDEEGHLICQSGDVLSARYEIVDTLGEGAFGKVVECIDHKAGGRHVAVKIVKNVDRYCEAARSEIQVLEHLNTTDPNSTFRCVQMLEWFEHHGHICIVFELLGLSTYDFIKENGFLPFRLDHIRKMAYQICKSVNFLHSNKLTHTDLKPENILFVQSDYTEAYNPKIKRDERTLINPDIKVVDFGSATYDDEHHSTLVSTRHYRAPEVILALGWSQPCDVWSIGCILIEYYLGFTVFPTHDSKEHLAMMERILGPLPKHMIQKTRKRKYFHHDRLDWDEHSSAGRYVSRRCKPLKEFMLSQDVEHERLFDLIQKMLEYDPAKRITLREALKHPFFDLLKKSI

[8] = target: T6, DYRK3 (Homo sapiens, UniProt O43781); details: cited from earlier work
T6 construct: purchased ProQinase (Freiburg, Germany)
T6 sequence (O43781 1-588): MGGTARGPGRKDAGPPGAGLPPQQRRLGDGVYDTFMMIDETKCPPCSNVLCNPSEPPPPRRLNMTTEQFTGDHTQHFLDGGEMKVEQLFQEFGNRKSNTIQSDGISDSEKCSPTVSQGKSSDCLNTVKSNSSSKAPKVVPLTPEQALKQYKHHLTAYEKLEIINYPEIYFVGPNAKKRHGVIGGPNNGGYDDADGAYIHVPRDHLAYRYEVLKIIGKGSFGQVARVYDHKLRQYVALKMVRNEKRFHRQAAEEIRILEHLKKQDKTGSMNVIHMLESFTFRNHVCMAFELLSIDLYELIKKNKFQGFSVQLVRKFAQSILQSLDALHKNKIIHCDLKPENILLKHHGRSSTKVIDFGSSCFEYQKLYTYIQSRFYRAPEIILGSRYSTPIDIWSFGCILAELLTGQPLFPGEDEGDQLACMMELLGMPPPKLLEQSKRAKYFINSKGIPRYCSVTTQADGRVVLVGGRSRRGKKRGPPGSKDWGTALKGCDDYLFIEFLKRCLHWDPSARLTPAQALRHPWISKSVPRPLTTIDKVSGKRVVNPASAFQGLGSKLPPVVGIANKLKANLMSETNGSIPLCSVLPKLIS

[9] = target: PIM3 (Homo sapiens, UniProt Q86V86); parameters: purchased ProQinase (Freiburg, Germany); details: cited from earlier work
[10] = target: PIM2 (Homo sapiens, UniProt Q9P1W9); parameters: purchased ProQinase (Freiburg, Germany); details: cited from earlier work
Sequence of PIM2 (Q9P1W9 whole entry): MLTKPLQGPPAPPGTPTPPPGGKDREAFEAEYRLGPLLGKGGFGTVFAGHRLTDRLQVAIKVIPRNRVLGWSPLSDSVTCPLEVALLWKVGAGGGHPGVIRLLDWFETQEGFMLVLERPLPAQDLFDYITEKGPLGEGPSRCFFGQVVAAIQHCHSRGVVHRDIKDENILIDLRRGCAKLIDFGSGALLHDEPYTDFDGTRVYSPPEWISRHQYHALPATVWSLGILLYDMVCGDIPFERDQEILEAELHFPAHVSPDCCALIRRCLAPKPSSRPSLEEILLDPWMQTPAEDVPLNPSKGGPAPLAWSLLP

[11] = target: HIPK3 (Homo sapiens, UniProt Q9H422); parameters: purchased ProQinase (Freiburg, Germany); details: cited from earlier work
Sequence of HIPK3 (Q9H422 whole entry): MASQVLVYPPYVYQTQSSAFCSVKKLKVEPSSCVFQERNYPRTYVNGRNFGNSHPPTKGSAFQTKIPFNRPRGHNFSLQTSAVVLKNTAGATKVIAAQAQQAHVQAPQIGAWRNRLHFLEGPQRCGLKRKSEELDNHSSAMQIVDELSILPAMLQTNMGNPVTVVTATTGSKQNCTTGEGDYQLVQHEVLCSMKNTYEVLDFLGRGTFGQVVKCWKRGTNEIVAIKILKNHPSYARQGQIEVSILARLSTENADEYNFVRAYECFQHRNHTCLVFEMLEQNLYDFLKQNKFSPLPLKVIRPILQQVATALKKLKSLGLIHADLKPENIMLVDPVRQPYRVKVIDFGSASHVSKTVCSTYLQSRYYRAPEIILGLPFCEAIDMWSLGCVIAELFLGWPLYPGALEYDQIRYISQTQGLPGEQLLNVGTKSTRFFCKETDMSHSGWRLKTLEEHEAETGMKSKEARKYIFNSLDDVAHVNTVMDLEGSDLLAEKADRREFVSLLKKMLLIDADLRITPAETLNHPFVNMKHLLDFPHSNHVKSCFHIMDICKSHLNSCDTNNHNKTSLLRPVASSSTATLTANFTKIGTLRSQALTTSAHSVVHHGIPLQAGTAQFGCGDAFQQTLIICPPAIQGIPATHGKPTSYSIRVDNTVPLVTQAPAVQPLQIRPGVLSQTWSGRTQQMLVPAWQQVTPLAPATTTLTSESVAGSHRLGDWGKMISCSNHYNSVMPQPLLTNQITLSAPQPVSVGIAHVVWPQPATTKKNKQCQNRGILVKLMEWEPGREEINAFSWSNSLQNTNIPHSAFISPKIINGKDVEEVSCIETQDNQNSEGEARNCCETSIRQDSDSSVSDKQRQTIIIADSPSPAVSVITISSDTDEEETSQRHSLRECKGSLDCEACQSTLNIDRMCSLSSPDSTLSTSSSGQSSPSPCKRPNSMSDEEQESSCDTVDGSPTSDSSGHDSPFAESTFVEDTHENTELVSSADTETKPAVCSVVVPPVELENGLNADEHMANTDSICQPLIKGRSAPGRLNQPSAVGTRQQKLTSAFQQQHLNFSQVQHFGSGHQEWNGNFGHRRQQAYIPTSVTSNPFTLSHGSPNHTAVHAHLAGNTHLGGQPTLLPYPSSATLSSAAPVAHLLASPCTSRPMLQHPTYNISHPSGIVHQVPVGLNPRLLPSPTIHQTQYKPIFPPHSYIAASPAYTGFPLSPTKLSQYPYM

[12] = target: T7, HIPK4 (Homo sapiens, UniProt Q8NE63); parameters: purchased ProQinase (Freiburg, Germany); details: cited from earlier work
T7 sequence (Q8NE63 1-616): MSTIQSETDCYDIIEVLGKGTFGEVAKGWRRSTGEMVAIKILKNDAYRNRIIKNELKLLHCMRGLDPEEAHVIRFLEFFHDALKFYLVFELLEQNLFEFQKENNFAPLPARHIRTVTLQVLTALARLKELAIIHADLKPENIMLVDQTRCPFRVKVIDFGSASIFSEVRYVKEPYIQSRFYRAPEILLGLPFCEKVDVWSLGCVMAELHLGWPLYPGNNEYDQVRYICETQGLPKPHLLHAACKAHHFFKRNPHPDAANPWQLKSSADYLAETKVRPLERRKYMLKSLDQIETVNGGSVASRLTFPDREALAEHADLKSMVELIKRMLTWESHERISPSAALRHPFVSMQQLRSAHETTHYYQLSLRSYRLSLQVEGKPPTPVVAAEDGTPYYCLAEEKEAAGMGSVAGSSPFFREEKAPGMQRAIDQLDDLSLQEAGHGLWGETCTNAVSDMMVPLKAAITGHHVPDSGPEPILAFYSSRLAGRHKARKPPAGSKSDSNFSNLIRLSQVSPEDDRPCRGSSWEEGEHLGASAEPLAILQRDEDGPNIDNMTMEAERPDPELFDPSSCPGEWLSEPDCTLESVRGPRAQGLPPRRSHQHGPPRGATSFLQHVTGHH

[13] = target: HIPK1 (Homo sapiens, UniProt Q86Z02); parameters: purchased ProQinase (Freiburg, Germany); details: cited from earlier work
Sequence of HIPK1 (Q86Z02 whole entry): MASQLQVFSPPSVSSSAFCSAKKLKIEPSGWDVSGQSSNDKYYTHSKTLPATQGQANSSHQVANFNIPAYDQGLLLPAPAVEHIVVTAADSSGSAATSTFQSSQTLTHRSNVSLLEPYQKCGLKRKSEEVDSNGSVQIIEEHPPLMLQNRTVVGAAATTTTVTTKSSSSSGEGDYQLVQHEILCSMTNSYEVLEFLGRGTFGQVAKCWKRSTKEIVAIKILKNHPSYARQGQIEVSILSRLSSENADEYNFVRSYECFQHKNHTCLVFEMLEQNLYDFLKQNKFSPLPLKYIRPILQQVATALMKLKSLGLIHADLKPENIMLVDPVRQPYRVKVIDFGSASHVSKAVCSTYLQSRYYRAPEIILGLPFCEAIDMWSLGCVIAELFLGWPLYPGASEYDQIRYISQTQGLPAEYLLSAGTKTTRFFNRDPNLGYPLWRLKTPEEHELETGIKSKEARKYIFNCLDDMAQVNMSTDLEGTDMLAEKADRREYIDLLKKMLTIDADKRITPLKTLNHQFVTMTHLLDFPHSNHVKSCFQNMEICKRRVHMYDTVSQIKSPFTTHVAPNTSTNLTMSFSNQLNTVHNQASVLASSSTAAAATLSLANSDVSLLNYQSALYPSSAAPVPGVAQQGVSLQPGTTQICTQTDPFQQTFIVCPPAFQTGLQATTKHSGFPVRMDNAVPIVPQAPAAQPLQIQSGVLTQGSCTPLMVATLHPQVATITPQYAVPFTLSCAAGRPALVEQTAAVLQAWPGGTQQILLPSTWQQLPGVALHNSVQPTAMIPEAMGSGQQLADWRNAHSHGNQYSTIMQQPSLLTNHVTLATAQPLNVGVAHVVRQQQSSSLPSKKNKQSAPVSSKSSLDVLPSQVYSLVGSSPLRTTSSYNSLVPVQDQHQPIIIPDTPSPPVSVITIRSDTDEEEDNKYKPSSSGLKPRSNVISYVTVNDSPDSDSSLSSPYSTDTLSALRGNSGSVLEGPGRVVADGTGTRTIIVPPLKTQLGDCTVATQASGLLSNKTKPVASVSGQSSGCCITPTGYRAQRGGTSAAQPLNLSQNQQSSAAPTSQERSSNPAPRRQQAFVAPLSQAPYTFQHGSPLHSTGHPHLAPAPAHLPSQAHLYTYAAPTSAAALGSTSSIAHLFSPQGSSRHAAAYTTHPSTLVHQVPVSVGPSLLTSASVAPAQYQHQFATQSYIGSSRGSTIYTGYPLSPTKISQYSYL

[14] = test system: Haspin; details: cited from earlier work
[15] = target: T8, HIPK2 (Homo sapiens, UniProt Q9H2X6); parameters: purchased ProQinase (Freiburg, Germany); details: cited from earlier work
Target sequence in this assay (Q9H2X6 whole entry): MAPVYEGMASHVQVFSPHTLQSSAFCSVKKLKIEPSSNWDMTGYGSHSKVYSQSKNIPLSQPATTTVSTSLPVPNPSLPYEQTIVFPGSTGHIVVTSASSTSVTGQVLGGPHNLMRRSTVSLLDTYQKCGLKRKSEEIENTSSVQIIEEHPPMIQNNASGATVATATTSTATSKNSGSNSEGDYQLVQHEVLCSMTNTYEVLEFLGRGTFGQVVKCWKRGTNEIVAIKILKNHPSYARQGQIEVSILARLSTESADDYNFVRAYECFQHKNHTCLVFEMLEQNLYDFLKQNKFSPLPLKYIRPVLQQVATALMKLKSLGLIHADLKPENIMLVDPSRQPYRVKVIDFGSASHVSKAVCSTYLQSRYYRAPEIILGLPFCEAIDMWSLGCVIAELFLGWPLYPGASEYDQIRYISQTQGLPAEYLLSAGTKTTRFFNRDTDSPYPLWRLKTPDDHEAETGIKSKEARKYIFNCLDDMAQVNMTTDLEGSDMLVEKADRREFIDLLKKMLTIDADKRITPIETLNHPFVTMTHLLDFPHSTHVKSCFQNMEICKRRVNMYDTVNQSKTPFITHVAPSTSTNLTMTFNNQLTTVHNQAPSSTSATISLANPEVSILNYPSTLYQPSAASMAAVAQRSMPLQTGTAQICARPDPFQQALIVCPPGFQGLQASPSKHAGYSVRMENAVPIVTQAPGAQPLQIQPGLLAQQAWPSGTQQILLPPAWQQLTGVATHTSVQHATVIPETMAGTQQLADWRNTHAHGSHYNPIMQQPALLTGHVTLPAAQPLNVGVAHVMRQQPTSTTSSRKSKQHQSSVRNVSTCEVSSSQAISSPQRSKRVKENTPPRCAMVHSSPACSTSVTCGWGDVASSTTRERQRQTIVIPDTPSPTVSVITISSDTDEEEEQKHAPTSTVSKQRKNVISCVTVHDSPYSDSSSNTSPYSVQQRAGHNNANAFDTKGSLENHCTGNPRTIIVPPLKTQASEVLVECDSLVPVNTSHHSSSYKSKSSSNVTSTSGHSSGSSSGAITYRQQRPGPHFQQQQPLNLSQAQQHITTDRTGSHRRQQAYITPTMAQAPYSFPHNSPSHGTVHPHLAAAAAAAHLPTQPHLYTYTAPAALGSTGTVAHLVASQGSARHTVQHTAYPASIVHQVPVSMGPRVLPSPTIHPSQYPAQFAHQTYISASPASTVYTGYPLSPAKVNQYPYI

[16] = target: T9, CLK2 (Homo sapiens, UniProt P49760); details: cited from earlier work
T9 construct: purchased ProQinase (Freiburg, Germany)

[17] = test system: DYRK1A; details: cited from earlier work
[18] = target: T5, CLK1; assay: Kinase-GLO luminescent kinase assay; assay type: biochemical; parameters: made in house; host or cells: E. coli; details: 1 μM compound; means of at least 3 measurements
Protocol: (§1) Bacterial expression plasmids for GST-DYRK1A-ΔC and GST-DYRK2 have been described earlier. […] Expression in logarithmically growing E. coli culture was performed for 3 h at 37°C (GST-DYRK1A-ΔC and GST-DYRK2), 3 h at 26°C (GST-HIPK2cat), over night at 28°C (GST-CLK1cat) or over night at room temperature (GST-DYRK1Bcat).
(§2) Compounds were screened for inhibitory effects against GST-DYRK1A-ΔC, GST-DYRK1Bcat, GST-DYRK2, GST-CLK1cat or GST-HIPK2cat using the Kinase-GLO Luminescent Kinase Assay from Promega. Assays were performed in a total volume of 10 μL in kinase-buffer (25 mM Hepes pH 7.4, 0.5 mM DTT, 5 mM MgCl2, 5 μM ATP) with appropriate peptide substrates (20 μM DYRKtide for the DYRKs and 100 μM DYRKtide for HIPK2, […]; or 100 μM RS domain-derived peptide for CLK1, […]). Assays were started with this amount of a kinase preparation that consumed approximately 90% of the ATP in the assay (linear range of the kinase titration curve). The reactions were run at room temperature for 30 min before 10 μL Kinase-GLO reagent was added. After incubation at room temperature for additional 10 min, luminescence was recorded for 1 s.

[19] = target: T4, DYRK1B; assay: Kinase-GLO luminescent kinase assay; assay type: biochemical; parameters: made in house; host or cells: E. coli; details: 1 μM compound; means of at least 3 measurements
Protocol: as §1, §2

[20] = target: T8, HIPK2; assay: Kinase-GLO luminescent kinase assay; assay type: biochemical; parameters: made in house; host or cells: E. coli; details: 10 μM compound; means of at least 3 measurements
Protocol: as §1, §2

[21] = target: T1, DYRK1A; assay: Kinase-GLO luminescent kinase assay; assay type: biochemical; details: 1 μM compound; means of at least 3 measurements
Protocol: as §1, §2

[22] = target: T3, DYRK2; assay: Kinase-GLO luminescent kinase assay; assay type: biochemical; details: 1 μM compound; means of at least 3 measurements
Protocol: as §1, §2

[23] = test system: MAO-A; parameters: method as in PMID 25240617; details: 1 μM; cited from earlier work
[24] = target: T10, DYRK4 (Homo sapiens, UniProt Q9NR20); details: 5 μM; cited from earlier work
T10 construct: purchased ProQinase (Freiburg, Germany)

N#CCn1c2c(Br)nccc2c2ccc(Cl)c(Cl)c21 [AnnH79]
inhibition of DYRK1A-catalysed SF3B1 Thr434 phosphorylation [1]: does not inhibit DYRK1A

COc1ccc2c3ccnc(C(F)(F)F)c3n(CCCCN)c2c1 [LDN-211898]
Residual activity (% of control) [2]: 47 % of control
Residual activity (% of control) ([3]; 10 μM): 63 % of control
Residual activity (% of control) ([4]; 10 μM): 14 % of control
Residual activity (% of control) ([5]; 10 μM): 2 % of control
Residual activity (% of control) ([6]; 10 μM): 9 % of control
Residual activity (% of control) ([7]; 10 μM): 0 % of control
Residual activity (% of control) ([8]; 10 μM): 3 % of control
Residual activity (% of control) ([9]; 10 μM): 11 % of control
Residual activity (% of control) ([10]; 10 μM): 36 % of control
Residual activity (% of control) ([11]; 10 μM): 51 % of control
Residual activity (% of control) ([12]; 10 μM): 72 % of control
Residual activity (% of control) ([13]; 10 μM): 59 % of control
Residual activity (% of control) ([14]; 10 μM): 0 % of control
Residual activity (% of control) ([15]; 10 μM): 47 % of control
Residual activity (% of control) ([16]; 10 μM): 1 % of control
Residual activity (% of control) ([17]; 10 μM): 0 % of control

COc1ccc2c(c1)[nH]c1c(C)nccc12 [Harmine, harmine]
Residual activity (% of control) [2]: 66 % of control
Residual activity (% of control) ([4]; 1 μM): 35 % of control
Residual activity (% of control) ([4]; 10 μM): 61 % of control
Residual activity (% of control) ([5]; 10 μM): 2 % of control
Residual activity (% of control) CLK1 [18]: 23 % of control
Residual activity (% of control) DYRK1B [19]: 11 % of control
Residual activity (% of control) HIPK2 [20]: 79 % of control
Residual activity (% of control) ([6]; 1 μM): 74 % of control
Residual activity (% of control) ([6]; 10 μM): 85 % of control
Residual activity (% of control) ([7]; 10 μM): 0 % of control
Residual activity (% of control) ([9]; 1 μM): 74 % of control
Residual activity (% of control) ([9]; 10 μM): 78 % of control
Residual activity (% of control) ([10]; 1 μM): 101 % of control
Residual activity (% of control) ([10]; 10 μM): 43 % of control
Residual activity (% of control) ([11]; 1 μM): 118 % of control
Residual activity (% of control) ([11]; 10 μM): 44 % of control
Residual activity (% of control) ([12]; 10 μM): 90 % of control
Residual activity (% of control) DYRK1A [21]: 27 % of control
Residual activity (% of control) DYRK2 [22]: 92 % of control
Residual activity (% of control) ([13]; 1 μM): 119 % of control
Residual activity (% of control) ([13]; 10 μM): 14 % of control
IC50 ([14]; ref Cuny et al. 38): 590 nM
Residual activity (% of control) ([15]; 1 μM): 68 % of control
Residual activity (% of control) ([15]; 10 μM): 34 % of control

CCCCCCCn1c2cc(OC)ccc2c2ccnc(C)c21 [N9-heptyl harmine]
inhibition of MAO-A [23]: 13%
inhibition of DYRK1A ([17]; 1 μM): 85%

c1ccc(-c2cc(-c3cncs3)cs2)cc1 [Thiophene 29]
Residual activity (% of control) ([3]; 5 μM): 88 % of control
Residual activity (% of control) ([4]; 5 μM): 7 % of control
Residual activity (% of control) ([5]; 5 μM): 0 % of control
Residual activity (% of control) ([6]; 5 μM): 78 % of control
Residual activity (% of control) ([7]; 5 μM): 4 % of control
Residual activity (% of control) ([8]; 5 μM): 34 % of control
Residual activity (% of control) ([10]; 5 μM): 93 % of control
Residual activity (% of control) ([12]; 5 μM): 93 % of control
Residual activity (% of control) [24]: 87 % of control
Residual activity (% of control) ([13]; 5 μM): 96 % of control
Residual activity (% of control) ([16]; 5 μM): 28 % of control
Residual activity (% of control) ([17]; 5 μM): 10 % of control
